Test results reported in patent publication US12250947B2, “Substituted azaspiro-cycles as herbicides” (SYNGENTA CROP PROTECTION AG, priority 2019, dated 2025).

Experiments:
Format in all cases: in vivo
barley crop plants = experiment: Crop phytotoxicity comparison, post-emergence, barley
Method: (§1) Seeds of a variety of test species are sown in standard soil in pots (Lolium perenne (LOLPE), Setaria faberi (SETFA), Alopecurus myosuroides (ALOMY), Echinochloa crus-galli (ECHCG), Avena fatua (AVEFA)). After cultivation for one day (pre-emergence) or after 8 days cultivation (post-emergence) under controlled conditions in a glasshouse (at 24/16° C., day/night; 14 hours light; 65% humidity), the plants are sprayed with an aqueous spray solution derived from the formulation of the technical active ingredient in acetone/water (50:50) solution containing 0.5% Tween 20 (polyoxyethelyene sorbitan monolaurate, CAS RN 9005-64-5). Compounds are applied at 250 g/h. The test plants are then grown in a glasshouse under controlled conditions in a glasshouse (at 24/16° C., day/night; 14 hours light; 65% humidity) and watered twice daily. After 13 days for pre and post-emergence, the test is evaluated for the percentage damage caused to the plant. The biological activities are shown in the following table on a five-point scale (5=80-100%; 4=60-79%; 3=40-59%; 2=20-39%; 1=0-19%). NT=not tested.
(§2) Using procedures outlines above, wheat and barley crop plants are treated, post-emergence with compounds A1 or A4 of the present invention or comparator compound C1 (Compound A-38 from WO2014/096289) at the application rates indicated. The compounds were also applied in conjunction with the safener compound cloquintocet-mexyl (CQC) at 50 g/ha.

wheat crop plants = experiment: Crop phytotoxicity comparison, post-emergence, wheat
Method: as §1, §2

[1] = system: Alopecurus myosuroides (ALOMY); experiment: Herbicidal glasshouse test, pre-emergence, ALOMY; details: 250 g/Ha, evaluated after 13 days
Method: (§3) Seeds of a variety of test species are sown in standard soil in pots (Lolium perenne (LOLPE), Setaria faberi (SETFA), Alopecurus myosuroides (ALOMY), Echinochloa crus-galli (ECHCG), Avena fatua (AVEFA)). […] Compounds are applied at 250 g/h. The test plants are then grown in a glasshouse under controlled conditions in a glasshouse (at 24/16° C., day/night; 14 hours light; 65% humidity) and watered twice daily. After 13 days for pre and post-emergence, the test is evaluated for the percentage damage caused to the plant. […] NT=not tested.

Lolium perenne (LOLPE) [2] = experiment: Herbicidal glasshouse test, post-emergence, LOLPE; details: 250 g/Ha, evaluated after 13 days
Method: as §3

[3] = system: Echinochloa crus-galli (ECHCG); experiment: Herbicidal glasshouse test, post-emergence, ECHCG; details: 250 g/Ha, evaluated after 13 days
Method: as §3

[4] = system: Echinochloa crus-galli (ECHCG); experiment: Herbicidal glasshouse test, pre-emergence, ECHCG; details: 250 g/Ha, evaluated after 13 days
Method: as §3

Lolium perenne (LOLPE) [5] = experiment: Herbicidal glasshouse test, pre-emergence, LOLPE; details: 250 g/Ha, evaluated after 13 days
Method: as §3

Setaria faberi (SETFA) [6] = experiment: Herbicidal glasshouse test, post-emergence, SETFA; details: 250 g/Ha, evaluated after 13 days
Method: as §3

Avena fatua (AVEFA) [7] = experiment: Herbicidal glasshouse test, pre-emergence, AVEFA; details: 250 g/Ha, evaluated after 13 days
Method: as §3

Setaria faberi (SETFA) [8] = experiment: Herbicidal glasshouse test, pre-emergence, SETFA; details: 250 g/Ha, evaluated after 13 days
Method: as §3

[9] = system: Alopecurus myosuroides (ALOMY); experiment: Herbicidal glasshouse test, post-emergence, ALOMY; details: 250 g/Ha, evaluated after 13 days
Method: as §3

Avena fatua (AVEFA) [10] = experiment: Herbicidal glasshouse test, post-emergence, AVEFA; details: 250 g/Ha, evaluated after 13 days
Method: as §3

[11] = rate 60 g/ha + safener cloquintocet-mexyl (CQC) at 50 g/ha

## CC#Cc1cc(C)c(C2C(=O)CC3(CCOCC3)CC2=O)c(C)c1 [Compound C1, reference compound]
Barley crop plants; rate 30 g/ha
  % phytotoxicity observed, Barley: 80%
Barley crop plants; rate 60 g/ha
  % phytotoxicity observed, Barley: 90%
Wheat crop plants; rate 30 g/ha
  % phytotoxicity observed, Wheat: 40%
Wheat crop plants; rate 60 g/ha
  % phytotoxicity observed, Wheat: 70%
Wheat crop plants; [11]
  % phytotoxicity observed, Wheat: 60%

## CC#Cc1cc(C)c(C2C(=O)CC3(CCN(C(=O)C(C)=O)CC3)CC2=O)c(C)c1 [Compound A1, 9-(2,6-dimethyl-4-prop-1-ynyl-phenyl)-3-(2-oxopropanoyl)-3-azaspiro[5.5]undecane-8,10-dione]
[1]
  percentage damage caused to the plant, five-point scale, ALOMY: 5 (5=80-100%)
Lolium perenne (LOLPE) [2]
  percentage damage caused to the plant, five-point scale, LOLPE: 5 (5=80-100%)
Barley crop plants; rate 30 g/ha
  % phytotoxicity observed, Barley: 0%
Barley crop plants; rate 60 g/ha
  % phytotoxicity observed, Barley: 0%
Wheat crop plants; rate 30 g/ha
  % phytotoxicity observed, Wheat: 0%
Wheat crop plants; rate 60 g/ha
  % phytotoxicity observed, Wheat: 10%
Wheat crop plants; [11]
  % phytotoxicity observed, Wheat: 0%
Wheat crop plants; wheat and barley crops, summary of Table B3
  damage to the wheat and barley crops compared to prior art compound C1: significantly less damaging
[3]
  percentage damage caused to the plant, five-point scale, ECHCG: 5 (5=80-100%)
[4]
  percentage damage caused to the plant, five-point scale, ECHCG: 5 (5=80-100%)
Lolium perenne (LOLPE) [5]
  percentage damage caused to the plant, five-point scale, LOLPE: 5 (5=80-100%)
Setaria faberi (SETFA) [6]
  percentage damage caused to the plant, five-point scale, SETFA: 5 (5=80-100%)
Avena fatua (AVEFA) [7]
  percentage damage caused to the plant, five-point scale, AVEFA: 5 (5=80-100%)
Setaria faberi (SETFA) [8]
  percentage damage caused to the plant, five-point scale, SETFA: 5 (5=80-100%)
[9]
  percentage damage caused to the plant, five-point scale, ALOMY: 5 (5=80-100%)
Avena fatua (AVEFA) [10]
  percentage damage caused to the plant, five-point scale, AVEFA: 5 (5=80-100%)
